# Laboratory results from paper PMC6891598, “Application of N-Dodecyl L-Peptide to Enhance Serum Stability while Maintaining Inhibitory Effects on Myometrial Contractions Ex Vivo” (Molecules, 2019).
# “Also recorded” adds a separate entry of the source. Residues, ends and D or L forms follow the SMILES beside them.
# Legend:
# [1] = test system: murine myometrial tissue (KCl-induced tension); test: mean tension induced by KCl (positive control) in mouse myometrial tissue; design: species or system mouse (CD-1); conditions: post-partum mouse myometrial tissue
# Protocol: (§1) All the peptides were initially tested in an ex vivo mouse myometrial tissue contraction assay. Contractile activity was measured on tissue that was harvested post-partum and treated with prostaglandin F2α (PGFα) alone (control) or in the presence of peptides L-4b-4g, L-7, and L-8. […] Mean tension induced by KCl (as a positive control) was not affected by L-4d.
# The uterus from the CD-1 mouse was obtained from the animal immediately after term delivery under anesthesia (2.5% isoflurane). Briefly, a midline abdominal incision was made and the uterine horns were rapidly excised, cleansed carefully of the surrounding connective tissues, and removed. Longitudinal myometrial strips (2 to 3 mm wide and 1 cm long) were dissected free from the uterus and mounted isometrically in organ tissue baths. The initial tension was set at 2 g. […] Isometric tension was measured by a force transducer and recorded by a BIOPAC data acquisition system (BIOPAC MP150, Montreal, PQ, Canada). […] Mean tension of spontaneous contractions was measured using a BIOPAC digital polygraph system (AcqKnowledge); the same parameters were also determined after addition of PGF2α in the presence or the absence of a 20 min-pretreatment with different FP inhibitors. […] Changes in mean tension (g) were expressed as percentages of the initial reference response (% of baseline).
# [2] = test system: murine myometrial tissue (PGF2α-induced contractions; FP); test: ex vivo mouse myometrial tissue contraction assay (PGF2α-induced); design: species or system mouse (CD-1); conditions: post-partum CD-1 mouse myometrial strips, Krebs buffer pH 7.4, 37 °C, 20 min pretreatment with peptide at two concentrations, then PGF2α; 4–6 experiments per group, means ± SEM, t-test, p < 0.05 vs vehicle
# Protocol: as §1
# Pregnant CD-1 mice (16-17 days gestation, term 19 days) were obtained from Charles River Inc. and used according to a protocol of the Animal Care Committee of Hôpital Sainte-Justine according to the principles of the Guide for the Care and Use of Experimental Animals of the Canadian Council on Animal Care. The animals were maintained on standard laboratory chow under a 12:12 light:dark cycle and allowed free access to chow and water.
# The uterus from the CD-1 mouse was obtained from the animal immediately after term delivery under anesthesia (2.5% isoflurane). Briefly, a midline abdominal incision was made and the uterine horns were rapidly excised, cleansed carefully of the surrounding connective tissues, and removed. Longitudinal myometrial strips (2 to 3 mm wide and 1 cm long) were dissected free from the uterus and mounted isometrically in organ tissue baths. The initial tension was set at 2 g. The tissue baths contained 20 mL of Krebs buffer of the following composition (in mM): 118 NaCl, 4.7 KCl, 2.5 CaCl2, 0.9 MgSO4, 1 KH2PO4, 11.1 glucose, and 23 NaHCO3 (pH 7.4). The buffer was equilibrated with 95% oxygen/5% carbon dioxide at 37 °C. Isometric tension was measured by a force transducer and recorded by a BIOPAC data acquisition system (BIOPAC MP150, Montreal, PQ, Canada). Experiments were begun after 1 h equilibration. Mean tension of spontaneous contractions was measured using a BIOPAC digital polygraph system (AcqKnowledge); the same parameters were also determined after addition of PGF2α in the presence or the absence of a 20 min-pretreatment with different FP inhibitors. At the start of each experiment, mean tension of spontaneous myometrial contractions was considered as a reference response. Changes in mean tension (g) were expressed as percentages of the initial reference response (% of baseline).
# At the start of each experiments, mean tension of spontaneous myometrial contractions was considered as a reference response. Increase in mean tension (%) was expressed as percentages of (X/Y)-100, where X is the change in mean tension (g) induced by PGF2α and Y is the initial reference response (g). Data are representative of 4–6 experiments per treated group. All results are expressed as means ± SEM and were compared by Independent t-tests. Statistical tests were performed with GraphPad Prism 4.3 software and p < 0.05 was considered statistically significant.
# [3] = test system: LPS-induced preterm delivery in pregnant CD-1 mice; test: LPS-induced mouse preterm birth (PTB) model; type: in vivo, mouse (CD-1); conditions: gestational day 16, LPS 10 μg/animal i.p., L-4d 20 mg/day/animal by s.c. osmotic pump after 0.1 mg/animal i.p. bolus, n = 5 (saline n = 4)
# Protocol: (§2) The ability of peptide L-4d to delay labor in vivo was next tested in mice near term and treated with lipopolysaccharide (LPS) Escherichia coli endotoxin, as a pathogen associated molecular pattern, which is known to promote a general inflammatory state resulting in prostaglandin synthesis and induced premature delivery. Following LPS injection into mice (n = 4–5) at gestational day 16, all the animals tested delivered within 12−24 h.
# Timed-pregnant CD-1 mice at 16 days gestation (normal term is 19.2 days) were anesthetized with isoflurane (2%). Primed osmotic pumps (Alzet pump, Alzet, Cupertino, CA) containing either saline (n = 4) or compound L-4d (20 mg/day/animal, n = 5) were respectively subcutaneously implanted on the backs of the animals; infusion of peptide was immediately preceded by bolus injection of peptide (0.1 mg/animal intraperitoneally). Within 15 min after placement of the pumps, animals were injected with lipopolysaccharide (LPS) Escherichia coli endotoxin (10 μg/animal intraperitoneally) to mimic the inflammatory/infectious component of human preterm labor. Animals were inspected every hour for the first 18 h and every 2 h thereafter to document the timing of birth. Results are expressed as percentages of animals delivered following the injection of LPS [57]. […]
# [4] = serum stability study (mouse serum/plasma, MS/MS); type: in vitro ADME; conditions: mouse plasma (method: serum), 37 °C, incubation up to 2 hours, LC-MS/MS, internal standard L-4f
# Protocol: Peptide L-4d was further examined for stability in serum and compared to L-PDC31. The two peptides were incubated at 37 °C in mouse plasma. Aliquots were removed at different time intervals and analyzed by mass spectrometry (MS/MS) to detect remaining amount of peptide (Figure 3).
# Serum was […] and kept on ice throughout the procedure. Two blanks were prepared by adding 5 µL of DMSO to 95 µL of serum. These were incubated for 2 h and submitted to the same treatment as the other samples. Two series of vials containing 95 µL of serum were prepared and spiked with either 5 µL of L-PDC31 [0.4 mM] or L-4d [0.4 mM], and incubated for 120, 60, 30, 15, 10 and 5 min, respectively, after which 100 µL of 4% phosphoric acid was added. Two vials were also spiked with 5 µL L-PDC31 and L-4d, respectively, and immediately treated with phosphoric acid (time = 0 min). The vials were incubated for 5 min at 95 °C, cooled on ice for 2 min, treated with 600 µL of cold MeCN containing L-4f (0.02 mM) as internal standard, and incubated at –20 °C overnight. After the incubation period, the vials were vortexed for 2 min and centrifuged at 4 °C for 15 min. The supernatant was transferred into LC-MS vials and analyzed.
# Results were expressed as: (AN/IS/AN0/IS0)∗100
# AN and IS refer, respectively, to the analyte and internal standard MS signals. Both values are compared with initial injection at which time AN0 and IS0 were not incubated.
# [5] = test system: murine myometrial tissue (PGF2α-induced contractions; FP); conditions: cited from earlier work
# Excerpt: Moreover, addition of the dodecyl chain enhanced plasma stability.
# [6] = test system: prostaglandin F2α receptor (FP); conditions: FP inhibition, cited from earlier work
# Protocol: The development of PDC31 originated from a library of sequences based on the second extracellular loop of FP. Short lead peptides were analyzed initially using in vitro and ex vivo analyses. […] Moreover, addition of the dodecyl chain enhanced plasma stability.
# [7] = test system: LPS-induced preterm delivery in pregnant CD-1 mice; conditions: cited from earlier work
# Protocol: as §2
# [8] = test system: intrauterine pressure and pain in women with primary dysmenorrhea; conditions: phase Ib; cited from earlier work
# Excerpt: The prostaglandin F2α receptor (FP) is a promising target for delaying labor because of its relevant involvement in parturition. At the beginning of labor and preterm labor, FP expression increases. […] Targeting FP, the tocolytic prototype PDC31 is currently undergoing clinical trials.
compound,measurement,setting,value
"CCCCCCCCCCCCN[C@H](C(=O)N[C@@H](CC(C)C)C(=O)NCC(=O)N[C@@H](Cc1c[nH]cn1)C(=O)N[C@@H](CCCNC(N)=O)C(=O)N[C@@H](CC(=O)O)C(=O)N[C@@H](Cc1ccc(O)cc1)C(=O)N[C@@H](CCCCN)C(=O)O)[C@@H](C)CC [L-4d, N-Dodecyl-Ile-Leu-Gly-His-Cit-Asp-Tyr-Lys-OH] (HELM PEPTIDE1{[CCCCCCCCCCCCN[C@H](C(=O)[*:2])[C@@H](C)CC].L.G.H.[Cit].D.Y.K}$$$$V2.0)",effect on mean tension induced by KCl (positive control),[1],not affected
same,effect on PGF2α-induced contractions (mean tension) of myometrial tissue,[2],significant reduction of contractions; also recorded: able to reduce uterine contractions induced by PGF2α; also recorded: significant reduction of PGF2α-induced contractility
same,ability to delay labor (time of delivery) in LPS-induced PTB model,[3],unable to exhibit a statistically significant reduction in the time of delivery; also recorded: failed to prolong labor in vivo; also recorded: inactive in vivo; also recorded: no significant ability to delay labor
same,"stability in mouse plasma, in words",[4],still present after 2 hours of incubation
H-ile-leu-Gly-his-cit-asp-tyr-lys-OH [PDC31],effect on spontaneous and PGF2α-induced contractions in postpartum mice myometrium,[5],reduce both the strength and length of spontaneous and PGF2α-induced contractions
same,efficacy,[6],> 85%
same,IC50,[6]; read-out: potency (IC50),13 nM
same,ability to delay labor in the PTB model,[7],delay labor
same,safety and effect on intrauterine pressure and pain,[8],safe in reducing intrauterine pressure and pain associated with excessive uterine contractility
